Assay results: article PMC11178787, “Development of a natural product optimization strategy for inhibitors against MraY, a promising antibacterial target” (Nature Communications, 2024)
≈ marks a conversion by molar mass, not a printed value.

Experiments:
Test in all cases: microbe, parasite or virus in culture
Set-up in all cases: CLSI broth microdilution MIC in MHB-II
[1] = test system: T1, Enterococcus faecalis 25; conditions: Enterococcus faecalis, 25, 18 h, read-out: MIC
T1 construct: 25
Method: (§1) MICs were determined by a microdilution broth method as recommended by the CLSI with MHB-II. For MICs of stable analogues, a 2-fold dilution of each compound was prepared in DMSO at 100-fold of the final concentration. The strains were inoculated with 5 × 10^5 cfu/mL in 96-well plates (each 100 μL/well), and 1 μL of DMSO solutions of the samples were added (contained less than 1% DMSO). The plates were incubated at 37 °C for 18 h and then MICs were determined. MICs of stable analogues in Table 1 were the highest value in three trials. MICs in Supplementary Table 1 were determined in one trial.

[2] = test system: T2, Staphylococcus aureus #2310; conditions: Staphylococcus aureus, 18 h, read-out: MIC
T2 construct: #2310
Method: as §1

[3] = test system: T3, Enterococcus faecalis 29; conditions: Enterococcus faecalis, 29, 18 h, read-out: MIC
T3 construct: 29
Method: as §1

[4] = test system: T4, Enterococcus faecalis 22; conditions: Enterococcus faecalis, 22, 18 h, read-out: MIC
T4 construct: 22
Method: as §1

[5] = test system: Enterococcus faecium 2; conditions: Enterococcus faecium, 2, 18 h, read-out: MIC
Method: as §1

[6] = test system: Enterococcus faecium 5; conditions: Enterococcus faecium, 5, 18 h, read-out: MIC
Method: as §1

[7] = test system: Enterococcus faecium 9; conditions: Enterococcus faecium, 9, 18 h, read-out: MIC
Method: as §1

[8] = test system: T5, Enterococcus faecalis 23; conditions: Enterococcus faecalis, 23, 18 h, read-out: MIC
T5 construct: 23
Method: as §1

[9] = test system: Enterococcus faecium 4; conditions: Enterococcus faecium, 4, 18 h, read-out: MIC
Method: as §1

[10] = test system: Enterococcus faecium 8; conditions: Enterococcus faecium, 8, 18 h, read-out: MIC
Method: as §1

[11] = test system: T6, Staphylococcus aureus #2334; conditions: Staphylococcus aureus, 18 h, read-out: MIC
T6 construct: #2334
Method: as §1

[12] = test system: Enterococcus faecium 3; conditions: Enterococcus faecium, 3, 18 h, read-out: MIC
Method: as §1

[13] = test system: T7, Staphylococcus aureus #1958; conditions: Staphylococcus aureus, 18 h, read-out: MIC
T7 construct: #1958
Method: as §1

[14] = test system: T8, Staphylococcus aureus #2110; conditions: Staphylococcus aureus, 18 h, read-out: MIC
T8 construct: #2110
Method: as §1

[15] = test system: T9, Staphylococcus aureus #2933; conditions: Staphylococcus aureus, 18 h, read-out: MIC
T9 construct: #2933
Method: as §1

[16] = test system: T10, Staphylococcus aureus #2934; conditions: Staphylococcus aureus, 18 h, read-out: MIC
T10 construct: #2934
Method: as §1

[17] = test system: T11, Enterococcus faecalis 28; conditions: Enterococcus faecalis, 28, 18 h, read-out: MIC
T11 construct: 28
Method: as §1

[18] = test system: Enterococcus faecium 1; conditions: Enterococcus faecium, 1, 18 h, read-out: MIC
Method: as §1

[19] = test system: T12, Staphylococcus aureus #2071; conditions: Staphylococcus aureus, 18 h, read-out: MIC
T12 construct: #2071
Method: as §1

[20] = test system: T13, Enterococcus faecalis 27; conditions: Enterococcus faecalis, 27, 18 h, read-out: MIC
T13 construct: 27
Method: as §1

[21] = test system: T14, Enterococcus faecalis 21; conditions: Enterococcus faecalis, 21, 18 h, read-out: MIC
T14 construct: 21
Method: as §1

[22] = test system: T15, Staphylococcus aureus #2931; conditions: Staphylococcus aureus, 18 h, read-out: MIC
T15 construct: #2931
Method: as §1

[23] = test system: T16, Staphylococcus aureus #2935; conditions: Staphylococcus aureus, 18 h, read-out: MIC
T16 construct: #2935
Method: as §1

[24] = test system: T17, Enterococcus faecalis 26; conditions: Enterococcus faecalis, 26, 18 h, read-out: MIC
T17 construct: 26
Method: as §1

[25] = test system: T18, Staphylococcus aureus #2932; conditions: Staphylococcus aureus, 18 h, read-out: MIC
T18 construct: #2932
Method: as §1

[26] = test system: Enterococcus faecium 7; conditions: Enterococcus faecium, 7, 18 h, read-out: MIC
Method: as §1

SMILES	MIC [1]	MIC [2]	MIC [3]	MIC [4]	MIC [5]	MIC [6]	MIC [7]	MIC [8]	MIC [9]	MIC [10]	MIC [11]	MIC [12]	MIC [13]	MIC [14]	MIC [15]	MIC [16]	MIC [17]	MIC [18]	MIC [19]	MIC [20]	other results
CC1(C)S[C@@H]2[C@H](NC(=O)[C@H](N)c3ccccc3)C(=O)N2[C@H]1C(=O)O [ampicillin]	1 mg/L (≈ 2.86 µM)	32 mg/L (≈ 91.6 µM)	1 mg/L (≈ 2.86 µM)	1 mg/L (≈ 2.86 µM)	128 mg/L (≈ 366 µM)	128 mg/L (≈ 366 µM)	> 128 mg/L	1 mg/L (≈ 2.86 µM)	128 mg/L (≈ 366 µM)	128 mg/L (≈ 366 µM)	16 mg/L (≈ 45.8 µM)	> 128 mg/L	32 mg/L (≈ 91.6 µM)	16 mg/L (≈ 45.8 µM)	32 mg/L (≈ 91.6 µM)	16 mg/L (≈ 45.8 µM)	1 mg/L (≈ 2.86 µM)	> 128 mg/L	32 mg/L (≈ 91.6 µM)	1 mg/L (≈ 2.86 µM)	MIC [21]: 1 mg/L (≈ 2.86 µM); MIC [22]: 32 mg/L (≈ 91.6 µM); MIC [23]: 16 mg/L (≈ 45.8 µM); MIC [24]: 1 mg/L (≈ 2.86 µM); MIC [25]: 32 mg/L (≈ 91.6 µM); MIC [26]: 0.5 mg/L (≈ 1.43 µM)
CCCCCCCCCCCCCCCC(=O)N[C@@H](CCCCN)C(=O)NCc1cccc(CN[C@H](C(=O)O)[C@H](O[C@@H]2O[C@H](CN)[C@@H](O)[C@H]2O)[C@H]2O[C@@H](n3ccc(=O)[nH]c3=O)[C@H](O)[C@@H]2O)c1 [compound 2, analogue 2]	0.25 mg/L (≈ 0.268 µM)	2 mg/L (≈ 2.14 µM)	0.13 mg/L (≈ 0.139 µM)	0.13 mg/L (≈ 0.139 µM)	1 mg/L (≈ 1.07 µM)	1 mg/L (≈ 1.07 µM)	0.5 mg/L (≈ 0.535 µM)	0.25 mg/L (≈ 0.268 µM)	0.5 mg/L (≈ 0.535 µM)	0.5 mg/L (≈ 0.535 µM)	1 mg/L (≈ 1.07 µM)	1 mg/L (≈ 1.07 µM)	1 mg/L (≈ 1.07 µM)	2 mg/L (≈ 2.14 µM)	0.5 mg/L (≈ 0.535 µM)	0.5 mg/L (≈ 0.535 µM)	< 0.06 mg/L	1 mg/L (≈ 1.07 µM)	1 mg/L (≈ 1.07 µM)	0.25 mg/L (≈ 0.268 µM)	MIC [21]: 0.13 mg/L (≈ 0.139 µM); MIC [22]: 0.5 mg/L (≈ 0.535 µM); MIC [23]: 1 mg/L (≈ 1.07 µM); MIC [24]: 0.13 mg/L (≈ 0.139 µM); MIC [25]: 1 mg/L (≈ 1.07 µM); MIC [26]: 2 mg/L (≈ 2.14 µM)
CCCCCCCCCCCCCCCC(=O)N[C@@H](CCCNC(=N)N)C(=O)NCc1cccc(CN[C@H](C(=O)O)[C@H](O[C@@H]2O[C@H](CN)[C@@H](O)[C@H]2O)[C@H]2O[C@@H](n3ccc(=O)[nH]c3=O)[C@H](O)[C@@H]2O)c1 [compound 4, analogue 4]	0.25 mg/L (≈ 0.26 µM)	2 mg/L (≈ 2.08 µM)	< 0.06 mg/L	0.13 mg/L (≈ 0.135 µM)	2 mg/L (≈ 2.08 µM)	1 mg/L (≈ 1.04 µM)	0.5 mg/L (≈ 0.52 µM)	0.13 mg/L (≈ 0.135 µM)	0.5 mg/L (≈ 0.52 µM)	0.5 mg/L (≈ 0.52 µM)	2 mg/L (≈ 2.08 µM)	1 mg/L (≈ 1.04 µM)	2 mg/L (≈ 2.08 µM)	4 mg/L (≈ 4.16 µM)	1 mg/L (≈ 1.04 µM)	1 mg/L (≈ 1.04 µM)	< 0.06 mg/L	1 mg/L (≈ 1.04 µM)	1 mg/L (≈ 1.04 µM)	< 0.06 mg/L	MIC [21]: 0.13 mg/L (≈ 0.135 µM); MIC [22]: 1 mg/L (≈ 1.04 µM); MIC [23]: 2 mg/L (≈ 2.08 µM); MIC [24]: 0.25 mg/L (≈ 0.26 µM); MIC [25]: 2 mg/L (≈ 2.08 µM); MIC [26]: 1 mg/L (≈ 1.04 µM)
